Patent EP1781807B1, “FLUORESCENCE-BASED KINETIC DETERMINATION OF TRANSGLUTAMINASE ACTIVITY” (N-Zyme BioTec GmbH, priority 2004, dated 2006)
Where a SMILES comes first, the peptide text is derived from it. [ ]: non-standard residue; d: D form. The star is where a group is joined. X1 = O=[N+]([O-])c1ccc(NCCCCCN*)c([N+](=O)[O-])c1; 2Abz = Nc1ccccc1C(=O)O; Ahx = NCCCCCC(=O)O

Columns and labels:
Assay type in all cases: biochemical
[1] = target: T1, Faktor XIII (Homo sapiens, UniProt P00488); assay: Comparison of fluorescence-labelled transglutaminase peptide substrates, kinetic measurement (Beispiel 5); settings: 900 µl thrombin-containing 50 µM peptide solution + 100 µl Humanplasma
T1 construct: 100 µl humanem Plasma (durch Thrombin aktiviert); from tissue; host or cells: human plasma
T1 sequence (P00488 39-732): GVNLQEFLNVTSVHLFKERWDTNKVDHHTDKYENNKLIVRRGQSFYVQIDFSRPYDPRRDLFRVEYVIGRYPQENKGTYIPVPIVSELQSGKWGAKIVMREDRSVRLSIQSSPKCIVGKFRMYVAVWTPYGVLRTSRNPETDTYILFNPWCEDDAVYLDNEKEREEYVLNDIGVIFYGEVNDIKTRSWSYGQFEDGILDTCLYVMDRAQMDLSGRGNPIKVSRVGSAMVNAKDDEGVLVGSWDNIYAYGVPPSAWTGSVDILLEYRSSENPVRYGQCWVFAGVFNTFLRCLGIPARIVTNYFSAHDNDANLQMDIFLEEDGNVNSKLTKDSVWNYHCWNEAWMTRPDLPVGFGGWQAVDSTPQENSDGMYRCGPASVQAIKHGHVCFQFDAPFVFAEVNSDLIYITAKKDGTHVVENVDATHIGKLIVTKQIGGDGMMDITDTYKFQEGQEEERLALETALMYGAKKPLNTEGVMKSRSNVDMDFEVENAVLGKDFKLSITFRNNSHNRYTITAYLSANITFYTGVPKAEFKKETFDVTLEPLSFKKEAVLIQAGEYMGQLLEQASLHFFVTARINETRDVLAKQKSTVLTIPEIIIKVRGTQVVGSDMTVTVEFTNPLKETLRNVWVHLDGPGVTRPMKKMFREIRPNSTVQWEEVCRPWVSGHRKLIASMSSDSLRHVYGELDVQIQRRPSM
Protocol: Vergleich von Transglutaminasepeptidsubstraten
Für den Vergleich verschiedener mit fluoreszierenden Gruppen markierter Transglutaminasepeptidsubstrate wurden kinetische Messungen unter identischen Bedingungen durchgeführt. Dazu wurden zu 900 µl einer thrombinhaltigen 50 µM Lösung des Peptids 100 µl Humanplasma zugesetzt. Diese Bedingungen entsprechen denen, die bei heutzutage üblichen Faktor XIII - Messungen (wie bei dem Marktführer: Berichrom) zum Einsatz kommen. […] Auch die Verwendung von Abz als Fluorophor (Abz-Ahx-Glu(CAD-DNP)-Gln-Ile-Val, (Parameswaran et al.,
Um die Substrateigenschaften gegenüber den Substraten des Standes der Technik zu verbessern und somit klinisch relevante Messungen zu ermöglichen, wurde ausgehend von Verbindung 1 durch routinemäßiges Experimentieren das Peptidrückgrat so verändert, dass ein Substrat entstand, das durch FXIII schneller umgesetzt werden sollte (DNS-Ahx-Glu(CAD-DNP)-Glu-Gln-Val-Ser-Pro-Leu-Thr-Leu-Leu-Lys, 2).
Gegenüber dem Peptid, das in der Literatur (Kärpäti et al.) beschrieben wird, ist die Verbindung 2 um eine Aminosäure am N-Terminus verkürzt. Dahinter stand die Absicht, die im Stand der Technik bekannte und oben beschriebene fluorogene Teilstruktur zu erhalten. Es ist aber bekannt, dass gerade die Aminsäuren, die der Bindungsstelle von Enzymen direkt benachbart sind, besonders großen Einfluss auf die Substrateigenschaften von Peptiden, bzw. Proteinen haben. Deshalb wurde in einer weiteren Modifikation von Verbindung 1 die Verbindung 3 hergestellt. (DNS-Ahx-Asn-Glu(CAD-DNP)-Glu-Gln-Val-Ser-Pro-Leu-Thr-Leu-Leu-Lys, 3).
Beispielhaft wird dies im Vergleich in Fig. 6 anhand der Reaktion von 100 µl humanem Plasma (durch Thrombin aktiviert) und einer 50 µM Lösung des Peptides Abz-Asn-Glu(CAD-DNP)-Glu-Gln-Val-Ser-Pro-Leu-Thr-Leu-Leu-Lys (Verbindung 2)) gezeigt. Dem Vergleich der Strukturen und der Fluoreszenzdaten ist zu entnehmen, dass diese Wirkung auch für andere Transglutaminasen und andere Peptide Gültigkeit hat.

[2] = target: T2, Faktor XIII (Homo sapiens, UniProt P00488); assay: Selectivity of measurement of different transglutaminases, 1. Ansatz (Beispiel 4); settings: substrate 50 µM, 100 µl Citratplasma, 6 % DMSO, Exc. 310 nm, Em. 427 nm, 20 min
T2 construct: 100 µl Citratplasma; from tissue; host or cells: citrate plasma
T2 sequence (P00488 1-732): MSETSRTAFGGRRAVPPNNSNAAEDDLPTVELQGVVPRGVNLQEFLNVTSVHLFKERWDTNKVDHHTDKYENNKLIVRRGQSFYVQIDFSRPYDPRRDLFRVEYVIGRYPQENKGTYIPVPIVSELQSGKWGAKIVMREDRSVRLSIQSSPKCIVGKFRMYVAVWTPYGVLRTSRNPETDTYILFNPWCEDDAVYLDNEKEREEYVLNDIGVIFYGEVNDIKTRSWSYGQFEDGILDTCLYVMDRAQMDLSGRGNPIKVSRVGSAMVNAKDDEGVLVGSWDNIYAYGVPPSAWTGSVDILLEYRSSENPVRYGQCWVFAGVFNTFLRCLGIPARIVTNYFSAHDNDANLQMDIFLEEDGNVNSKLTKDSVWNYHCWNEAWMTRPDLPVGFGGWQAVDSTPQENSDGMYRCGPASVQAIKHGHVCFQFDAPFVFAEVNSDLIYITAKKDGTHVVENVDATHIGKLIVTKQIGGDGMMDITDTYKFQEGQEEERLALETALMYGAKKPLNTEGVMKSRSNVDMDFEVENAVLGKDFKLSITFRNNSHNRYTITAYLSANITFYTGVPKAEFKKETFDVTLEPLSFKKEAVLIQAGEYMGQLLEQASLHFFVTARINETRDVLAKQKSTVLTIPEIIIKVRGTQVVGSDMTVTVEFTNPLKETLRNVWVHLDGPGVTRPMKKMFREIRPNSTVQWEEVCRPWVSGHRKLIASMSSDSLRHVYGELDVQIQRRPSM
Text: (§1) Selektivität der Messungen verschiedener Transglutaminasen
1. Ansatz: Substratpeptid: Abz-Ala-Pro-Glu(CAD-DNP)-Gln-Glu-Ala (3), Transglutaminase: Faktor XIII

[3] = target: T3, FXIII (Homo sapiens, UniProt P00488); assay: Kinetic measurement of FXIII in plasma (Beispiel 1); settings: in Gegenwart von 5 mM Glycinethylester, otherwise identical conditions; 100 µl Citratplasma, 20 NIH Units Thrombin, 37°C, Exc. 310 nm, Em. 427 nm
T3 construct: Kinetische Messung von FXIII in Plasmen; from tissue; host or cells: plasma
T3 sequence (P00488 1-732): T2 sequence (P00488 1-732)
Text: Kinetische Messung von FXIII in Plasmen
Substratpeptid: Abz-Asn-Glu(CAD-DNP)-Glu-Gln-Val-Ser-Pro-Leu-Thr-Leu-Leu-Lys (2)
Die Substratsequenz Asn-Gln-Glu-Gln-Val-Ser-Pro-Leu-Thr-Leu-Leu-Lys ist einem natürlichen Substrat des FXIII entnommen und wurde bereits zur kinetischen Messungen von FXIII in der Literatur beschrieben (Kärpäti L. et al., Clin Chem., 46:12, 2000, 1946-55). Durch die erfindungsgemäße Modifikation dieses Peptides kann eine kinetische Messung in Plasmen durchgeführt werden (unterer Graph in Fig. 3). Die Messung wurde in diesem speziellen Fall wie folgt durchgeführt.

[4] = target: T4, gereinigte rekombinante humane Transglutaminase 2 (Homo sapiens, UniProt P21980); assay: Selectivity of measurement of different transglutaminases, 2. Ansatz (Beispiel 4); settings: substrate 50 µM, rhHis6TG2 0,25 µM, 6 % DMSO, Exc. 310 nm, Em. 427 nm, 20 min
T4 construct: His6
T4 sequence (P21980 1-687): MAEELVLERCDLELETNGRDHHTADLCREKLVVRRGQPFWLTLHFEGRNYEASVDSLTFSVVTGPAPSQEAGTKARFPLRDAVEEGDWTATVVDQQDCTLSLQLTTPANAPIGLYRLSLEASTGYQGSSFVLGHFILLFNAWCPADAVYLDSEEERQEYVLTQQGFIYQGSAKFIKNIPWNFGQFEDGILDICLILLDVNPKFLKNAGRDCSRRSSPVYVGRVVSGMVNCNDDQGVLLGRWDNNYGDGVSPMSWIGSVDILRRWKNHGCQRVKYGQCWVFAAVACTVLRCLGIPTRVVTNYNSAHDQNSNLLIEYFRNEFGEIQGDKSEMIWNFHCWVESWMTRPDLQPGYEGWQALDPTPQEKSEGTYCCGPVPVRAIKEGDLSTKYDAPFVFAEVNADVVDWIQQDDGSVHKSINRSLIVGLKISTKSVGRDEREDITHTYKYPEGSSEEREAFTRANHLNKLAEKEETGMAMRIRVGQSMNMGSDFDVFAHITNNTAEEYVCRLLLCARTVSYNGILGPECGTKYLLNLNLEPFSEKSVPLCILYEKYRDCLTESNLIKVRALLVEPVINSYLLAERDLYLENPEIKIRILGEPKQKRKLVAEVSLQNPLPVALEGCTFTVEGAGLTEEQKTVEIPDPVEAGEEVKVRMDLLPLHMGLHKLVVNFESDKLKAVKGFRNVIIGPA
Text: as §1
2. Ansatz: Abz-Asn-Glu(CAD-DNP)-Glu-Gln-Val-Ser-Pro-Leu-Thr-Leu-Leu-Lys (2), Transglutaminase: gereinigte rekombinante humane Transglutaminase 2

Molecule	Steigerung der Fluoreszenz [1]	other results
DNS-Ahx-Gln(CAD-DNP)-Glu-lle-Val-OH [Verbindung 1]	keine messbare Steigerung der Fluoreszenz	–
CC[C@H](C)[C@H](NC(=O)[C@H](CCC(N)=O)NC(=O)[C@H](CCC(=O)NCCCCCNc1ccc([N+](=O)[O-])cc1[N+](=O)[O-])NC(=O)CCCCCNC(=O)c1ccccc1N)C(=O)N[C@H](C(=O)O)C(C)C [Abz-Ahx-Glu(CAD-DNP)-Gln-Ile-Val] (H-[2Abz][Ahx]E(X1)QIV-OH)	keine messbare Steigerung der Fluoreszenz	–
DNS-Ahx-Asn-Glu(CAD-DNP)-Glu-Gln-Val-Ser-Pro-Leu-Thr-Leu-Leu-Lys	nicht zu dem gewünschten Ergebnis	–
C[C@H](NC(=O)[C@H](CCC(=O)O)NC(=O)[C@H](CCC(N)=O)NC(=O)[C@H](CCC(=O)NCCCCCNc1ccc([N+](=O)[O-])cc1[N+](=O)[O-])NC(=O)[C@@H]1CCCN1C(=O)[C@H](C)NC(=O)c1ccccc1N)C(=O)O [Verbindung 3] (H-[2Abz]APE(X1)QEA-OH)	–	Anstieg der Fluoreszenz [2]: Ergebnis: kein Anstieg der Fluoreszenz
2-Aminobenzoyl-L-asparaainyl-N^δ-[N-(2,4-dinitrophenyl)1-5-aminopentyl]-L-glutaminyl-L-glutamyl-L-glutaminyl-L-valinyl-L-serinyl-L-prolinyl-L-leucinyl-L-threoninyl-L-leucinyl-L-leucin-L-lysin [Verbindung 2]	wesentliche Verbesserung der Fluoreszenzsteigerung	Signal (Fluoreszenzänderung) [3]: Signal zusätzlich verstärkt; Anstieg der Fluoreszenz [4]: Ergebnis: kein Anstieg der Fluoreszenz
DNS-Ahx-Glu(CAD-DNP)-Glu-Gln-Val-Ser-Pro-Leu-Thr-Leu-Leu-Lys	nicht zu einer Verbesserung	–
